The values below come from patent US20240043400A1, “Octahydroisoquinolinyl Derivatives” (UCB Biopharma SRL, priority 2020, published 2024).

The target in the first assay is T1, dopamine D1 receptor (Homo sapiens, UniProt P21728).
T1 construct: host or cells: LMtk (Ltk-) mouse fibroblast cells, kept under Geneticin
T1 sequence (P21728 whole entry): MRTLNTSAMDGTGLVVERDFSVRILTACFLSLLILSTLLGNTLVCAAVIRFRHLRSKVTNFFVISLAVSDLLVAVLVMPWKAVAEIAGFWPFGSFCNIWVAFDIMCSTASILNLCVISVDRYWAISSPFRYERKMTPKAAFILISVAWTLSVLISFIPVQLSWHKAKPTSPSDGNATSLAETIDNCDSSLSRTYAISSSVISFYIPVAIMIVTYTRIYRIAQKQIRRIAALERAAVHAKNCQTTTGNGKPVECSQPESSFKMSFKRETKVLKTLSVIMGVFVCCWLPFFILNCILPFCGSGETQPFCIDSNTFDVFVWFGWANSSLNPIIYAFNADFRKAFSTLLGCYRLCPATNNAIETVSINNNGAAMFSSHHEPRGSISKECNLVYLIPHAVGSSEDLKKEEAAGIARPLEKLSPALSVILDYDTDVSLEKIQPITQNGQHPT
Put plainly: cAMP HTRF potentiation assay (in the presence of dopamine). It is filed as cell-based. The note with it: potentiation of cAMP with [EC20] of dopamine (1.1 nM); LMtk (Ltk−) mouse fibroblast cells expressing the dopamine D1 receptor. On the procedure: The potentiation assay measures the ability of compounds to increase the levels of cAMP produced by a low-threshold concentration of dopamine. The concentration of dopamine used ([EC20]) is designed to produce 20% stimulation compared to the maximal response (100%) seen with increasing the concentration of dopamine. To measure this potentiation we incubate increasing concentrations of the compound with the [EC20] of dopamine and measure the potentiation as increases in cAMP production. The pEC50 of a compound is the −log 10 of the concentration of the compound which produces 50% of the potentiation of the cAMP levels and the Erel is the relative efficacy, defined as the maximal % potentiation produced by the compound compared to the maximal response produced by increasing concentrations of dopamine (Erel of 1=dopamine maximum response).
Cells were cultured at 37° C. in a humidified atmosphere of 5% CO2. Cells were grown in DMEM-F12+GlutaMAX™-1 medium (GIBCO®, Invitrogen, Merelbeke, Belgium) containing 10% fetal bovine serum (BioWhittaker®, Lonza, Verviers, Belgium), 400 μg/mL Geneticin (GIBCO®), 100 IU/mL Penicillin and 100 IU/mL Streptomycin (Pen-Strep solution, BioWhittaker®).
The measurement of changes in intracellular cyclic adenosinemonophopshpate (cAMP) was determined using the HTRF cAMP dynamic assay kit from CisBio (Codolet, France). Using homogenous time-resolved fluoresence technology, the assay is based on competition between native cAMP produced by cells and cAMP labelled with the dye d2. The tracer binding is determined by an anti-cAMP antibody labeled with cryptate. The effects of the compound alone (agonism) was determined by performing the assay in the absence of dopamine, whilst the effect of the compound as a positive allosteric modulator (PAM) was determined in the presence of an EC20 concentration of dopamine. Cells (20,000 per well) are incubated in 384 plates for 1 h at rt in a final volume of 20 μLHBSS (Lonza, with calcium, magnesium and HEPES buffer 20 mM, pH 7.4) containing: isobutyl methylxanthine (Sigma, 0.1 mM final), varying concentrations of test compound (typically 10^−9.5 M to 10^−4.5 M) in the presence and absence of dopamine (1.1 nM final). The reaction is then terminated and the cells lysed by adding the d2 detection reagent in lysis buffer (10 μL) and the cryptate reagent in lysis buffer (10 μL) according to manufacturer's instructions. This is then incubated for a further 60 min at rt and changes in HTRF fluorescent emission ratio determined according to manufacturer's instructions using an Envision plate reader (Perkin Elmer, Zaventem, Belgium) with laser excitation. All incubations were performed in duplicate and results were compared to a concentration-effect curve to dopamine. (10^−11 M to 10^−6 M).
Data was analyzed using Excel and PRISM (GraphPad Software) to obtain pEC50 and Erel using the 4-parameter logistic equation (DeLean et al, 1978) where Erel is the fitted maximal response of the test compound minus basal expressed as a percentage relative to that obtained with dopamine which was defined as 100%.
(In general: TR-FRET usually uses a lanthanide donor and a delayed reading to cut background.)
By EC50 is commonly meant the concentration giving half of the maximal effect. For the compound `COc1ccc(C#N)c(CC(=O)N2CC[C@@H]3[C@H](CCC[C@H]3C(C)(O)C(F)(F)F)[C@@H]2C)c1Cl` (single isomer, unassigned) [Example 7-B], the EC50 is 794 nM.

In the case of `C[C@H]1[C@H]2CCC[C@@H]([C@H](O)C(F)(F)F)[C@@H]2CCN1C(=O)Cc1c(Cl)cnc(C(O)C(F)F)c1Cl` (single isomer, unassigned) [Example 15-B], the half-maximal effective concentration (EC50) is 25.1 nM.

Consider `C[C@H]1[C@H]2CCC[C@@H]([C@@H](O)C(F)(F)F)[C@@H]2CCN1C(=O)Cc1c(Cl)cnc(C(C)(O)C(F)F)c1Cl` (single isomer, unassigned) [Example 16-B], for which the EC50 is 79.4 nM.

Turning to `CC(O)c1ncc(Cl)c(CC(=O)N2CC[C@H]3[C@H]([C@H](O)C(F)F)CCC[C@@H]3[C@@H]2C)c1Cl` (single isomer, unassigned) [Example 17-A], the EC50 is 158 nM.

On to `CC(O)c1ncc(Cl)c(CC(=O)N2CC[C@H]3[C@H]([C@H](O)C(F)F)CCC[C@@H]3[C@@H]2C)c1Cl` (single isomer, unassigned) [Example 17-B], for which the EC50 is 126 nM.

On to `CC(O)c1ncc(Cl)c(CC(=O)N2CC[C@@H]3[C@H](CCC[C@H]3[C@](C)(O)C(F)F)[C@@H]2C)c1Cl` (single isomer, unassigned) [Example 18-A], for which the EC50 was 200 nM.

For the compound `CC(O)c1ncc(Cl)c(CC(=O)N2CC[C@@H]3[C@H](CCC[C@H]3[C@](C)(O)C(F)F)[C@@H]2C)c1Cl` (single isomer, unassigned) [Example 18-B], the EC50 was 158 nM.

Regarding `CC(O)c1ncc(Cl)c(CC(=O)N2CC[C@H]3[C@H](CCC(C)(C)O)CCC[C@@H]3[C@@H]2C)c1Cl` (single isomer, unassigned) [Example 24-A], the EC50 is 79.4 nM.

As to `CC(O)c1ncc(Cl)c(CC(=O)N2CC[C@H]3[C@H](CCC(C)(C)O)CCC[C@@H]3[C@@H]2C)c1Cl` (single isomer, unassigned) [Example 24-B], the EC50 is 39.8 nM.

For `C[C@H]1[C@H]2CCC[C@@H]([C@H](O)C(F)(F)F)[C@@H]2CCN1C(=O)Cc1c(Cl)ccc(OC(F)F)c1Cl` [Example 19, 1-[(1 S,4aR,5R,8aS)-1-methyl-5-[(1 S)-2,2,2-trifluoro-1-hydroxy-ethyl]-3,4,4a,5,6,7,8,8a-octahydro-1H-isoquinolin-2-yl]-2-[2,6-dichloro-3-(difluoromethoxy)phenyl]ethanone], the EC50 was 200 nM.

Consider `COc1ccc(C#N)c(CC(=O)N2CC[C@H]3C(C#CC(C)(C)O)CCC[C@@H]3[C@@H]2C)c1Cl` (stereo partly drawn) [Example 20, 2-[2-[(1S,4aS,8aS)-5-(3-hydroxy-3-methyl-but-1-ynyl)-1-methyl-3,4,4a,5,6,7,8,8a-octahydro-1H-isoquinolin-2-yl]-2-oxo-ethyl]-3-chloro-4-methoxy-benzonitrile], for which the EC50 was 158 nM.

In the case of `COc1ccc(C#N)c(CC(=O)N2CC[C@H]3[C@H](CCC(C)(C)O)CCC[C@@H]3[C@@H]2C)c1Cl` [Example 21, 2-[2-[(1S,4aS,5S,8aS)-5-(3-hydroxy-3-methyl-butyl)-1-methyl-3,4,4a,5,6,7,8,8a-octahydro-1H-isoquinolin-2-yl]-2-oxo-ethyl]-3-chloro-4-methoxy-benzonitrile], the 50% effective concentration (EC50) was 50.1 nM.

As for `C[C@H]1[C@H]2CCC[C@@H](CCC(C)(C)O)[C@@H]2CCN1C(=O)Cc1c(Cl)ccc2c1c(Cl)nn2C` [Example 22, 1-[(1S,4aS,5S,8aS)-5-(3-hydroxy-3-methyl-butyl)-1-methyl-3,4,4a,5,6,7,8,8a-octahydro-1H-isoquinolin-2-yl]-2-(3,5-dichloro-1-methyl-indazol-4-yl)ethanone], the EC50 is 200 nM.

`C[C@H]1[C@H]2CCC[C@@H](CCC(C)(C)O)[C@@H]2CCN1C(=O)Cc1c(Cl)cnc(CO)c1Cl` [Example 23, 1-[(1S,4aS,5S,8aS)-5-(3-hydroxy-3-methyl-butyl)-1-methyl-3,4,4a,5,6,7,8,8a-octahydro-1H-isoquinolin-2-yl]-2-[3,5-dichloro-2-(hydroxymethyl)-4-pyridyl]ethanone]: the EC50 was 50.1 nM.

Regarding `COc1ccc(C#N)c(CC(=O)N2CC[C@@H]3[C@H](CCC[C@H]3c3cn[nH]n3)[C@@H]2C)c1Cl` [Example 25, 2-[2-[(1S,4aR,5R,8aS)-1-methyl-5-(2H-triazol-4-yl)-3,4,4a,5,6,7,8,8a-octahydro-1H-isoquinolin-2-yl]-2-oxoethyl]-3-chloro-4-methoxybenzonitrile], the EC50 is 631 nM.

In the case of `C[C@H]1[C@H]2CCC[C@@H]([C@H](O)C(F)(F)F)[C@@H]2C[C@H](CO)N1C(=O)Cc1c(Cl)ccc2c1c(Cl)nn2C` [Example 26-A, 1-[(1S,3R,4aR,5R,8aS)-3-(hydroxymethyl)-1-methyl-5-[(1S)-2,2,2-trifluoro-1-hydroxy-ethyl]-3,4,4a,5,6,7,8,8a-octahydro-1H-isoquinolin-2-yl]-2-(3,5-dichloro-1-methyl-indazol-4-yl)ethanone], the EC50 is 3160 nM.

As to `C[C@H]1[C@@H]2CCC[C@H]([C@H](O)C(F)(F)F)[C@H]2C[C@H](CO)N1C(=O)Cc1c(Cl)ccc2c1c(Cl)nn2C` [Example 26-B, 1-[(1S,3R,4aS,5S,8aR)-3-(hydroxymethyl)-1-methyl-5-[(1S)-2,2,2-trifluoro-1-hydroxy-ethyl]-3,4,4a,5,6,7,8,8a-octahydro-1H-isoquinolin-2-yl]-2-(3,5-dichloro-1-methyl-indazol-4-yl)ethanone], the EC50 is 50.1 nM.

In the case of `C[C@H]1[C@H]2CCC[C@@H]([C@H](O)C(F)(F)F)[C@@H]2CCN1C(=O)Cc1c(Cl)ccc2c1c(Cl)cn2C` [Example 27, 1-[(1 S,4aR,5R,8aS)-1-methyl-5-[(1 S)-2,2,2-trifluoro-1-hydroxy-ethyl]-3,4,4a,5,6,7,8,8a-octahydro-1H-isoquinolin-2-yl]-2-(3,5-dichloro-1-methyl-indol-4-yl)ethanone], the EC50 is 251 nM.

The target in the next assay is T2, human GABAA receptor α1β2 and γ2 subunits (Homo sapiens, UniProt P14867+P18507+P47870).
T2 construct: expressed in transfected cells
T2 sequence (P14867 28-456): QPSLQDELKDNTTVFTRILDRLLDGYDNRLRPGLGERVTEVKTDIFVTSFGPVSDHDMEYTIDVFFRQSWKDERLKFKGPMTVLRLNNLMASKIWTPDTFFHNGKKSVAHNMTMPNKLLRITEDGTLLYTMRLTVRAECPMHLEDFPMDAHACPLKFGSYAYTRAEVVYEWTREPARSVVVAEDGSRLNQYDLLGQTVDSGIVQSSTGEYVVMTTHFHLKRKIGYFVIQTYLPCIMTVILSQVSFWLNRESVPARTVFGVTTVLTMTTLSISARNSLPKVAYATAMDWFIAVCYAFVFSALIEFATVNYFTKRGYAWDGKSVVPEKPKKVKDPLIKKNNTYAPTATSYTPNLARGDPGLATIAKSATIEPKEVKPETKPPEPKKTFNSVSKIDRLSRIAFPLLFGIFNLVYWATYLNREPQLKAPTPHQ
T2 sequence (P47870 25-512 limits assumed): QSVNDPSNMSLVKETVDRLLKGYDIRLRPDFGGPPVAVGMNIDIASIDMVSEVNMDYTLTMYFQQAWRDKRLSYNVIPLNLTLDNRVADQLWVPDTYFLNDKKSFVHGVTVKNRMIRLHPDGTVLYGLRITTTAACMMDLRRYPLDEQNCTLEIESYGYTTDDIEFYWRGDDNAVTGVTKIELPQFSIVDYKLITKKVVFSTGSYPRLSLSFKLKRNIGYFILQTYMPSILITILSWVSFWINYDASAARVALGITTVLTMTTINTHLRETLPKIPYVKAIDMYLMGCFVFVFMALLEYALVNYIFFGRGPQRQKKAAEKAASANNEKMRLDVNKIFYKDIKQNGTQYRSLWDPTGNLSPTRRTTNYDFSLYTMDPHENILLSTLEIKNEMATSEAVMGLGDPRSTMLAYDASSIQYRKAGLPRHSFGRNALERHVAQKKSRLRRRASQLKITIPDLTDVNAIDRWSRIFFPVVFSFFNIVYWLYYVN
T2 sequence (P18507 40-475): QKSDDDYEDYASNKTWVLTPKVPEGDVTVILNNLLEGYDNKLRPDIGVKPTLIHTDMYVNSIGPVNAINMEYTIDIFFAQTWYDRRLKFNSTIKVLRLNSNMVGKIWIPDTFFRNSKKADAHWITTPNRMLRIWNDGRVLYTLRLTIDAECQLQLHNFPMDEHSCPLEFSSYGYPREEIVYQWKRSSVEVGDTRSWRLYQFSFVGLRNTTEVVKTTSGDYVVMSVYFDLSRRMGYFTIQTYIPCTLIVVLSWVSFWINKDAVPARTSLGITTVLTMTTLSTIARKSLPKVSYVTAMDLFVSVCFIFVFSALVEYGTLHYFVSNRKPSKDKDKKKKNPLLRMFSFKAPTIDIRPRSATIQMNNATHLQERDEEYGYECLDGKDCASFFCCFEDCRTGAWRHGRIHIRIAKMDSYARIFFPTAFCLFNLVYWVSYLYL
Put plainly: Automated patch clamp studies on the GABAA receptor cells. It is filed as cell-based. As to conditions: 10 μM compound; 15 μM GABA; CHO-K1 cells; Table B. As for the experimental part: CHO-K1 cells stably expressing human GABAA receptor α1β2 and γ2 subunits were used. The cells were harvested using trypsin and maintained in serum-free medium at room temperature. The cells were washed and re-suspended in extracellular solution before testing.
Experiments on human GABAA (α1β2γ2) channels were conducted using an automated patch clamp assay (lonFlux™ HT). The external solution for recording GABAA currents was composed of sodium chloride 137 mM, potassium chloride 4 mM, calcium chloride 1.8 mM, magnesium chloride 1 mM, HEPES 10 mM, and glucose 10 mM. Both external and internal solutions were titrated with NaOH or KOH to obtain a pH of 7.35 and 7.3, respectively. The internal pipette solution contained potassium fluoride 70 mM, potassium chloride 60 mM, sodium chloride 70 mM, HEPES 5 mM, EGTA 5 mM, and Magnesium ATP 4 mM. The final concentration of vehicle used to dilute compounds was 0.33% DMSO in each well. Bicuculline (0.032 to 100 μM) was used as positive control inhibitor. GABA (15 μM) was used as agonist. All recordings were obtained from a holding potential of −60 mV.
The compound addition sequence was the following: one addition of the EC80 concentration of GABA was added to establish baseline response. Each concentration of compound was applied for 30 seconds followed by the addition of 15 μM GABA in the presence of the compound for 2 seconds. The process was repeated with the next ascending concentration of compound. Peak inward currents in response to the GABA additions in the presence of a single concentration of compound were measured. All compound data have been normalized to the baseline peak current induced by addition of 15 μM GABA for 2 seconds.
A general note: The patch-clamp technique gives a direct electrical read-out from membranes.
Turning to `COc1ccc(C#N)c(CC(=O)N2CC[C@@H]3[C@H](CCC[C@H]3C(C)(O)C(F)(F)F)[C@@H]2C)c1Cl` (single isomer, unassigned) [Example 7-B], the “% GABAA inhibition” value was 1.4%.
